Reference: US20160199365A1, “2-Carboxamide Cycloamino Urea Derivatives in Combination with HSP90 Inhibitors for the Treatment of Proliferative Diseases” (Novartis AG, priority 2011, published 2016)
Read-outs that look alike come from different tables or passages of the source.

Tests used:
[1] = tested on: HGC-27 subcutaneous xenografts; test: HGC-27 gastric cancer xenograft model, treatment from day 20 for 14 days (Example 2); type: in vivo, mice
Excerpt: The procedure described in Example 1 is followed with the following modifications: Treatments are initiated on day 20 following tumor cell implantation of 5 million HCG-27 cells, when the average tumor volume is 316 mm^3 (164-485 mm^3).

[2] = tested on: NCI-N87 tumors (human gastric carcinoma cells); test: NCI-N87 gastric cancer xenograft model, first experiment (Example 3); type: in vivo, mice
Procedure: Cells are harvested with trypsin (0.25% w/v)-EDTA (0.53 mM), are re-suspended in culture medium (with additives) and are counted with a Casy® system. Cell culture reagents are purchased from BioConcept (Allschwil, Switzerland). NCI-N87 tumors are established by injecting […] to 1×10^7 cells (in HBSS containing 50% v/v Matrigel) subcutaneously with a 23 Gauge needle. When tumors are established and reach between 180 and 210 mm^3, animals are randomized into treatment groups and the treatments are initiated. Compound A is formulated in NMP/PEG300/Solutol HS15/water (10:30:20:40% vol/vol) The compound is fully dissolved in NMP first and water is added immediately prior to administration to animals. […] All doses of AUY922 refer to the free base equivalent. AUY922 is administered iv at a volume of 10 ml/kg, twice a week. […] Pairwise comparisons are done using a one way ANOVA followed by Tukey's test. The level of significance of body weight change within a group between start and end of the treatment period is determined using a paired t-test. […] Calculations are performed using GraphPad Prism 4 for windows (GraphPad Software Inc.). In addition, an approximation of drug interactions is made using the method described by Clarke R., “Issues in experimental design and endpoint analysis in the study of experimental cytotoxic agents in vivo in breast cancer and other models”, Breast Cancer Res. Treat, 46, 255-78 (1997). This is applied to MV (Tumor volume). Female athymic nude mice are treated orally once a day with 50 mg/kg Compound A, alone or in combination with 50 mg/kg of AUY922 administered intravenously twice a week. […] For compound A, B or the combination AB (with Vehicle Control group C), antagonism is predicted when the calculation AB/C>A/C×B/C, additive effect: AB/C=A/C×B/C, synergistic interactions are predicted to occur when AB/C<[…].

[3] = tested on: NCI-N87 tumors (human gastric carcinoma cells); test: NCI-N87 gastric cancer xenograft model, second experiment (Example 3); type: in vivo, mice; settings: single agent
Procedure: Cells are harvested with trypsin (0.25% w/v)-EDTA (0.53 mM), are re-suspended in culture medium (with additives) and are counted with a Casy® system. Cell culture reagents are purchased from BioConcept (Allschwil, Switzerland). NCI-N87 tumors are established by injecting […] to 1×10^7 cells (in HBSS containing 50% v/v Matrigel) subcutaneously with a 23 Gauge needle. When tumors are established and reach between 180 and 210 mm^3, animals are randomized into treatment groups and the treatments are initiated. Compound A is formulated in NMP/PEG300/Solutol HS15/water (10:30:20:40% vol/vol) The compound is fully dissolved in NMP first and water is added immediately prior to administration to animals. […] All doses of AUY922 refer to the free base equivalent. AUY922 is administered iv at a volume of 10 ml/kg, twice a week. […] Pairwise comparisons are done using a one way ANOVA followed by Tukey's test. The level of significance of body weight change within a group between start and end of the treatment period is determined using a paired t-test. […] Calculations are performed using GraphPad Prism 4 for windows (GraphPad Software Inc.). In addition, an approximation of drug interactions is made using the method described by Clarke R., “Issues in experimental design and endpoint analysis in the study of experimental cytotoxic agents in vivo in breast cancer and other models”, Breast Cancer Res. Treat, 46, 255-78 (1997). This is applied to MV (Tumor volume).

[4] = tested on: NCI-N87 tumors (human gastric carcinoma cells); test: NCI-N87 gastric cancer xenograft model, third experiment (Example 3); type: in vivo, mice; settings: single agent
Procedure: Cells are harvested with trypsin (0.25% w/v)-EDTA (0.53 mM), are re-suspended in culture medium (with additives) and are counted with a Casy® system. Cell culture reagents are purchased from BioConcept (Allschwil, Switzerland). NCI-N87 tumors are established by injecting […] to 1×10^7 cells (in HBSS containing 50% v/v Matrigel) subcutaneously with a 23 Gauge needle. When tumors are established and reach between 180 and 210 mm^3, animals are randomized into treatment groups and the treatments are initiated. Compound A is formulated in NMP/PEG300/Solutol HS15/water (10:30:20:40% vol/vol) The compound is fully dissolved in NMP first and water is added immediately prior to administration to animals. […] All doses of AUY922 refer to the free base equivalent. AUY922 is administered iv at a volume of 10 ml/kg, twice a week. […] Pairwise comparisons are done using a one way ANOVA followed by Tukey's test. The level of significance of body weight change within a group between start and end of the treatment period is determined using a paired t-test. […] Calculations are performed using GraphPad Prism 4 for windows (GraphPad Software Inc.). In addition, an approximation of drug interactions is made using the method described by Clarke R., “Issues in experimental design and endpoint analysis in the study of experimental cytotoxic agents in vivo in breast cancer and other models”, Breast Cancer Res. Treat, 46, 255-78 (1997). This is applied to MV (Tumor volume). In the third efficacy experiment, the tumor model is set up as in the second experiment.

[5] = tested on: KYSE-70 tumors (esophageal squamous cell carcinoma cells); test: KYSE-70 esophageal squamous cell carcinoma xenograft model (Example 4); type: in vivo, mice
Procedure: KYSE-70 tumors are established by injecting 7.5×10^6 KYSE-70 cells, which are esophageal squamous cell carcinoma cells, in 100 μl cell suspension, with a 23 gauge needle subcutaneously on the right flank of the mice. Ten (10) days after implantation, […]. When tumors are established and reach about 156 mm^3 (minimum 86 mm^3, maximum 218 mm^3) approximately 10 days after implantation, 48 animals are selected and randomized into 6 treatment groups (n=8). Placebo control is formulated as 10 ml/kg of 250 μl NMP, 750 μl PEG300, 500 μl Solutol HS15, and 1000 μl water for delivery once daily per oral (Placebo 1) and as 10 ml/kg of 2.5 ml Glucose for delivery intravenously twice a week (Placebo 2). Compound A is formulated in NMP/PEG300/Solutol HS15/water (10:30:20:40% vol/vol). The compound is fully dissolved in NMP first and water is added immediately prior to administration to animals. […] All doses of AUY922 refer to the free base equivalent. AUY922 is administered iv at a volume of 10 ml/kg, twice a week.

[6] = tested on: HGC-27 subcutaneous xenografts (human gastric carcinoma cells, PIK3CA mutation, PTEN null); test: HGC-27 gastric cancer xenograft model in female athymic nude mice (Example 1); settings: for mean change of tumor volume: mean±SEM
Procedure: (§1) Experiments are performed in female Hsd:Athymic Nude-FoxN1^nu Nude mice approximately 8-12 weeks of age at treatment start.
(§2) HGC-27 cells, which are human gastric carcinoma cells with a PIK3CA mutation (c1624G>A, p.E542K) and PTEN null, are grown in MEM culture medium containing 1% non-essential amino acid with 10% heat-inactivated FCS, and are incubated at 37° C. in a 5% CO2 humidified atmosphere.
(§3) HGC-27 tumors are established in vivo by injection 5×10^6 cells in 200 μl (100 μl PBS+100 μl Matrigel) (Cat #354234, BD Bioscience, Bedford, Mass.) subcutaneous into the right flank of the animals. The efficacy experiments are started when the tumors reach an average size of approximately 230 mm^3 (day 12 post cell injection).
(§4) Compound A is formulated in 0.5% Methylcellulose (MC). 80 mg of Compound A is added to 16 ml of 0.5% MC, then stirred/vortexed and sonicated in water bath sonicator for 1 h to obtain 5 mg/ml homogeneous suspension. 0.5% MC is used to dilute the 5 mg/ml solution to 2.5 mg/ml and 1.25 mg/ml for dosing. Compound A or vehicle is administered orally at a volume of 10 ml/kg.
(§5) Tumor volumes are measured with calipers and determined according to the formula: length×diameter^2×π/6. Antitumor activity is expressed as T/C % which is determined according to the formula: (mean change of tumor volume of treated animals/mean change of tumor volume of control animals)×100. Regressions (%) are calculated according to the formula ((mean tumor volume at end of treatment-mean tumor volume at start of treatment)/mean tumor volume at start of treatment)×100. Body weights and tumor volumes are recorded twice a week.
(§6) Where applicable, data is presented as mean±SEM. For all tests, the level of significance is set at p<0.05. For tumor volumes, comparisons between treatment groups and vehicle control group are done using one-way ANOVA followed by Dunnett's test. Tumor volumes comparisons between treatment groups are done using Kruskal-Wallis one way ANOVA post-hoc Student Newman Kuels test or Dunn's test. In the first experiment, Compound A is orally administered daily to HGC-27 subcutaneous xenografts, tumor-bearing nude mice at a dose of 12.5 mg/kg, 25 mg/kg and 50 mg/kg.

[7] = Stability of Compound A dosing formulation; type: physicochemical; settings: room temperature
Procedure: Compound A is formulated in NMP/PEG300/Solutol HS15/water (10:30:20:40% vol/vol) The compound is fully dissolved in NMP first and water is added immediately prior to administration to animals.
Compound A is formulated in NMP/PEG300/Solutol HS15/water (10:30:20:40% vol/vol). The compound is fully dissolved in NMP first and water is added immediately prior to administration to animals.

[8] = tested on: HGC-27 subcutaneous xenografts (human gastric carcinoma cells, PIK3CA mutation, PTEN null); settings: mouse, in vivo, po
Procedure: as §1, §2, §3, §4, §5, §6

[9] = Group 4: 50 mg/kg AUY922 intravenous twice a week
[10] = AUY922 50 mg/kg i.v. twice a week
[11] = Compound A 50 mg/kg orally once a day
[12] = Group 2: 12.5 mg/kg Compound A per oral once daily
[13] = Group 3: 50 mg/kg Compound A per oral once daily

For `CCNC(=O)c1noc(-c2cc(C(C)C)c(O)cc2O)c1-c1ccc(CN2CCOCC2)cc1` [AUY922, 5-(2,4-Dihydroxy-5-isopropyl-phenyl)-4-(4-morpholin-4-ylmethyl-phenyl)-isoxazole-3-carboxylic acid ethylamide, reference compound], the T/C ([1]; AUY922 50 mg/kg 2q.w. i.v.) was 57%, the tumor regressions ([2]; AUY922 50 mg/kg i.v. twice a week, single agent) was 7% and the “mean change of tumor volume” value ([2]; AUY922 50 mg/kg i.v. twice a week, single agent, ±SEM) was −15.1±21.4 mm^3. For the same compound, the “ΔTV AUY922 (B)” value ([2]; AUY922 50 mg/kg i.v. twice a week, change of tumor volume (mm^3)) was −15.1, the B/C ([2]; ΔTV of AUY922 over vehicle control, Clarke method) was −0.061 and the T/C ([3]; AUY922 50 mg/kg i.v. twice per week) was 4.7%. For the same compound, the “mean change of tumor volume” value ([3]; AUY922 50 mg/kg, ±SEM) was 17.9±11.0 mm^3, the T/C ([4]; AUY922 50 mg/kg) was 14% and the “mean change of tumor volume” value ([4]; AUY922 50 mg/kg, ±SEM) was 27.4±10.2 mm^3. For the same compound, the “T/C [%] Day 10” value [5, 9] was 100.0%, the “T/C [%] Day 14” value [5, 9] was 145.3% and the “T/C [%] Day 17” value [5, 9] was 144.4%. The “T/C [%] Day 21” value [5, 9] was 131.8%, the “T/C [%] Day 24” value [5, 9] was 141.1% and the “T/C %” value ([6]; AUY922 50 mg/kg free base i.v. twice a week) was 60.5%. For the same compound, the body weight change [6, 10] was 6.6±2.6% and the “mean change of tumor volume” value [6, 10] was 792.2±159 mm^3.
Work on `Cc1nc(NC(=O)N2CCC[C@H]2C(N)=O)sc1-c1ccnc(C(C)(C)C(F)(F)F)c1` [Compound A, (S)-Pyrrolidine-1,2-dicarboxylic acid 2-amide 1-({4-methyl-5-[2-(2,2,2-trifluoro-1,1-dimethyl-ethyl)-pyridin-4-yl]-thiazol-2-yl}-amide)] yielded a T/C ([1]; Compound A 25 mg/kg q.d. p.o.) of 11%, a T/C ([1]; Compound A 50 mg/kg q.d. p.o.) of 10% and a T/C ([2]; Compound A 50 mg/kg orally once a day, single agent) of 4.2%. For the same compound, the “ΔTV Cmpd. A (A)” value ([2]; Compound A 50 mg/kg orally once a day, change of tumor volume (mm^3)) was 1.4, the A/C ([2]; ΔTV of Compound A over vehicle control, Clarke method) was 0.006 and the T/C ([3]; Compound A 12.5 mg/kg orally once a day, not statistically significant) was 30.3%. The “mean change of tumor volume (mm^3±SEM)” value ([3]; Compound A 12.5 mg/kg) was 114.9±43.9 mm^3, the regressions [3, 11] was 1.2% and the “mean change of tumor volume (mm^3±SEM)” value ([3]; Compound A 50 mg/kg) was −2.3±15.2 mm^3. The T/C ([4]; Compound A 12.5 mg/kg orally once a day) was 37.8%, the “mean change of tumor volume (mm^3±SEM)” value ([4]; Compound A 12.5 mg/kg) was 73.9±17.6 mm^3 and the regressions [4, 11] was 6.4%. For the same compound, the “mean change of tumor volume (mm^3±SEM)” value ([4]; Compound A 50 mg/kg) was −13.3±6.7 mm^3, the “T/C [%] Day 10” value [5, 12] was 100.0% and the “T/C [%] Day 14” value [5, 12] was −7.1%. The “T/C [%] Day 17” value [5, 12] was 74.0%, the “T/C [%] Day 21” value [5, 12] was 40.6% and the “T/C [%] Day 24” value [5, 12] was 47.5%. The “T/C [%] Day 10” value [5, 13] was 100.0%, the “T/C [%] Day 14” value [5, 13] was −49.3% and the “T/C [%] Day 17” value [5, 13] was −2.7%. The “T/C [%] Day 21” value [5, 13] was −40.1%, the “T/C [%] Day 24” value [5, 13] was −10.9% and the stability of suspension ([7]; Compound A in NMP/PEG300/Solutol HS15/water (10:30:20:40% vol/vol)) was “stable for one week”. For the same compound, the stability of suspension ([7]; Compound A suspension in 0.5% Methylcellulose) was “stable for one week”, the body weight change ([8]; 12.5 mg/kg) was 5.3±1.4% and the body weight change ([8]; 25 mg/kg) was 2.2±1.1%. The body weight change ([8]; 50 mg/kg) was −1.1±1.6%, the T/C % ([6]; Compound A 12.5 mg/kg p.o. once daily, 12 days, day 23) was 39.4% and the “mean change of tumor volume” value ([6]; Compound A 12.5 mg/kg p.o. once daily) was 515±85 mm^3. For the same compound, the T/C % ([6]; Compound A 25 mg/kg p.o. once daily, 12 days, day 23) was 35.5%, the “mean change of tumor volume” value ([6]; Compound A 25 mg/kg p.o. once daily) was 465±111 mm^3 and the T/C % ([6]; Compound A 50 mg/kg p.o. once daily, 12 days, day 23) was 7.1%. The “mean change of tumor volume” value ([6]; Compound A 50 mg/kg p.o. once daily) was 93±77 mm^3.
